From US20240115556A1, “A JMJD6 TARGETING AGENT FOR TREATING PROSTATE CANCER” (Cancer Research Technology Limited, priority 2020, published 2024)

Legend:
[1] = test system: AR-V7 in LNCaP95 PC cells; assay: AR-V7 protein (WB) and mRNA (qPCR) levels in LNCaP95 PC cells; assay type: cell-based; settings: I-BET151 for 48 hours
Procedure: (§1) All cell lines were purchased from LGC Standards/ATCC unless otherwise specified and grown in recommended media at 37° C. in 5% CO2. Short tandem repeat profiling was performed using the Cell Authentication Service by Eurofins Medigenomix to ensure the quality and integrity of the cell lines used. Cells lines were tested for mycoplasma after thawing, then regularly every 6-8 weeks during culture using the Venor®GeM Advance Mycoplasma Detection Kit (Minerva Biolabs). Early passages were thawed every 3-months (after approximately 15-20 passages). Small interfering RNA (siRNA): All siRNAs were ONTARGETplus pools (Dharmacon; GE heathcare), and used in combination with 0.4% RNAiMax transfection reagent (ThermoFisher Scientific) as per manufacturer's instructions. siRNA experiments were performed at 50 nM, unless otherwise specified, for 72-hours. […]
(§2) 0.45 μm pore size (Millipore). […] Chemiluminescence was then detected using the Chemidoc Touch imaging system (BioRad). Quantitative Reverse Transcription Polymerase Chain Reaction (qRT-PCR)
(§3) The RNeasy Plus Mini kit (Qiagen) was used to extract cellular RNA as per manufacturer's instructions. […] The fold change in mRNA expression levels was calculated by the comparative Ct method, using the formula 2-(-(ΔΔCt).

[2] = test system: JMJD6 protein in LNCaP95 cells; assay: WB of JMJD6 protein in LNCaP95 cells treated with I-BET151; assay type: cell-based; settings: I-BET151 for 48 hours
Procedure: Subsequent to cell lysis with RIPA buffer (Pierce) supplemented with cOmplete™ EDTA-free Protease Inhibitor Cocktail (Roche), protein extracts (20 μg) were separated by electrophoresis on 4-12% NuPAGE® Bis-Tris gel plates (Invitrogen) prior to transfer onto Immobilon-P™ PVDF membranes of 0.45 μm pore size (Millipore). Membranes were then incubated sequentially with primary and then secondary antibody in 5% milk and tris-buffered saline (TBS) and Tween®20 (Sigma Aldrich). Chemiluminescence was then detected using the Chemidoc Touch imaging system (BioRad). Quantitative Reverse Transcription Polymerase Chain Reaction (qRT-PCR)

[3] = test system: 12-mer peptide substrate of the LUC7L2 pre-mRNA splicing factor
[4] = test system: AR-V7 in 22Rv1 PC cells; assay: AR-V7 protein (WB) and mRNA (qPCR) levels in 22Rv1 PC cells; assay type: cell-based; settings: 2,4-PDCA for 48 hours
Procedure: as §1, §2, §3

[5] = target: T1, JMJD6 (1-362) (Homo sapiens, UniProt Q6NYC1); assay: LC-MS assay for JMJD6 inhibition (hydroxylation of LUC7L2 peptide substrate); assay type: biochemical; parameters: dose or concentration left out as unconfirmed; settings: 8-point 3-fold serial dilution of 2,4-PDCA, 2 hours at 37° C.
T1 construct: by JMJD6 (1-362, prepared as reported); made in house
Source text: Liquid Chromatography Mass Spectrometry (LC-MS) assays for JMJD6 inhibition by 2,4-PDCA Hydroxylation of a 12-mer peptide substrate (NPKRSRSREHRR, prepared with a C-terminal amide) of the LUC7L2 pre-mRNA splicing factor by JMJD6 (1-362, prepared as reported) was monitored by liquid chromatography mass spectrometry (LC-MS) using an Agilent 1290 infinity II LC system equipped with an Agilent 1290 infinity binary pump and coupled to an Agilent 6550 Accurate Mass Quadrupole Time of Flight (Q-TOF) mass spectrometer. Note this construct has hydroxylation but not demethylation activity. All JMJD61-362 enzyme reactions were performed in 50 mM Tris.Cl pH 7.5 (prepared fresh each day) at 37° C. […] Peptide ionization was monitored in the positive ion electrospray ionisation (ESI) mode with a drying gas temperature of 280° C., a drying gas flow rate of 13 L/minute, nebulizer gas pressure of 40 PSI, sheath gas temperature of 350° C., sheath gas flow rate of 12 L/min and a nozzle voltage of 1000V. […] The % conversion of the peptide substrate to the +16 hydroxylated peptide was calculated using the equation: % conversion=100×hydroxylated/(hydroxylated+non-hydroxylated peptide). The IC50 for 2,4-PDCA was determined from non-linear regression curve fitting using GraphPad prism 6.0.

[6] = at least in some cell types; cited from earlier work
[7] = test system: VCaP PC cells; assay: CellTiter-Glo Luminescent Cell Viability Assay, VCaP; assay type: cell-based; settings: siRNA 25 nM; Enzalutamide; after 5-days; vs control siRNA + DMSO 0.1%
Procedure: Cells were plated in 48-well tissue culture plates and treated as indicated the following day, then grown for 6-days or until 80-90% confluence. To quantify growth of LNCaP, LNCaP95, 22Rv1 and PNT2 cell lines, cells were fixed with 10% (w/v) aqueous trichloroacetic acid and incubated at 4° C. for 30-minutes prior to washing and air-drying. Subsequently cells were stained with sulforhodamine B (SRB) for 30-minutes prior to excess dye removal with 1% (v/v) aqueous acetic acid and further air-drying. Following this, protein-bound dye was dissolved in 10 mM Tris base solution, transferred to a 96-wellplate, and optical density determined at 510 nm using the Synergy HT microplate reader (BioTek). VCaP cell growth assays were analyzed using CellTiter-Glo® Luminescent Cell Viability Assay (Promega) as per manufacturer instructions, and luminescence quantified using the Synergy HT microplate reader (BioTek).

[8] = test system: AR-V7 in VCaP PC cells; assay: AR-V7 protein (WB) and mRNA (qPCR) levels in VCaP PC cells; assay type: cell-based; settings: 72 hour, siRNA 25 nM, Enzalutamide 10 µM
Procedure: as §1, §2, §3

## COc1cc2c(cc1-c1c(C)noc1C)ncc1[nH]c(=O)n([C@H](C)c3ccccn3)c12 [I-BET151]
[1]
  AR-V7 protein expression: dose-dependent reduction
[2]
  JMJD6 protein expression: dose-dependent reduction

## JMJD6 (1-362)
[3]
  lysyl-5-hydroxylation of the peptide substrate (LC-MS, % conversion to the +16 hydroxylated peptide): 2,4-PDCA caused dose-dependent reduction in isolated JMJD6-mediated lysyl-5-hydroxylation of the known downstream target LUC7-Like (LUC7L)

## O=C(O)c1ccnc(C(=O)O)c1 [2,4-PDCA, pyridine-2,4-dicarboxylic acid]
[4]
  AR-V7 protein levels: dose-dependent reduction
[5]
  isolated JMJD6-mediated lysyl-5-hydroxylation of LUC7-Like (LUC7L): dose-dependent reduction
[6]
  permeability: low

## CNC(=O)c1ccc(N2C(=S)N(c3ccc(C#N)c(C(F)(F)F)c3)C(=O)C2(C)C)cc1F [enzalutamide]
[7]
  VCaP PC cell viability: reduced
[8]
  AR-V7 protein (WB) levels: increase significantly
